According to article PMC8406298, “Discovery of Fungus-Specific Targets and Inhibitors Using Chemical Phenotyping of Pathogenic Spore Germination” (mBio, 2021):

Columns and labels:
[1] = tested on: normal human dermal fibroblasts (NHDF) cells; experiment: Fibroblast cytotoxicity (CellTiter-Glo); assay type: cell-based; conditions: 10 µM
Protocol: PrimaPure normal human dermal fibroblasts (NHDF) cells (Genlatis PH10605A) were cultured and passaged in fibroblast growth medium (Genlatis PM116500) according to the manufacturer’s protocol. NHDF cells (1 × 10^3 per well) were plated in a 384-well plate in cell culture medium. The cells were incubated with each compound of interest at 10 μM concentration for 72 h at 37°C and 5% CO2. Following treatment, CellTiter-Glo (Promega) reagent was used to assay ATP-dependent luminescence and thus provide a measure of cell viability. […] For cytotoxicity dose-response curves (Fig. 4C and Fig. 5C), compounds were titrated from 80 μM to 0.5 μM in duplicates.

[2] = tested on: Cryptococcus yeast (CHY3833 and CHY3836); experiment: Yeast replication secondary screen (OD600); assay type: cell-based, Cryptococcus neoformans serotype D (deneoformans); conditions: 10 μM, 12 h at 30°C
Protocol: (ii) Yeast replication. CHY3833 and CHY3836 were each grown in YPD liquid overnight at 30°C to saturation and then resuspended in 0.5× YPD at an OD600 of 0.005. Strains were aliquoted into 384-well plates with inhibitors and grown for 12 h at 30°C at […] before OD600 readings were taken. Compounds that caused a >10% decrease in growth were considered yeast growth inhibitors.

Compound | Cytotoxicity: Relative Cell Viability (% of Negative Control) [1] | Yeast Inhibition: % Inhibition [2]
O=c1/c(=C/c2ccc(F)cc2F)sc2nc3ccccc3n12 [compound 2354424] | 81.4 % of Negative Control | 88.9%
FC(F)(F)c1cccc(N2CCN(c3ncnc4sccc34)CC2)c1 [compound 2497352] | 96.2 % of Negative Control | 92.5%
CC(C)(C)NCC(O)COc1ccc(C23CC4CC(CC(C4)C2)C3)cc1 (stereo not drawn) [compound 2769740] | 2.7 % of Negative Control | 101.5%
NNc1nc2cc3c(cc2s1)OCCO3 [compound 2771030] | 94.3 % of Negative Control | 99.1%
O=Cc1sc(=O)n(-c2ccccc2)c1Cl [compound 2793380] | 5.7 % of Negative Control | 78.0%
O=S1(=O)CCC(NC(=S)SCc2ccccc2)C1 (stereo not drawn) [compound 2831154] | 24.3 % of Negative Control | 48.2%
Cc1ccc(N2C(=O)C=CC2=O)c([N+](=O)[O-])c1 [compound 2834581] | 4.3 % of Negative Control | 101.2%
C=CCN(CC=C)CC(O)CN1c2ccccc2Sc2ccccc21 (stereo not drawn) [compound 2896856] | 5.4 % of Negative Control | 43.9%
Cc1ccc(N2C(=O)CC(Sc3ccccc3C(=O)O)C2=O)c(Br)c1 (stereo not drawn) [compound 2919713] | 94.3 % of Negative Control | 67.2%
ClC1(Cl)CC1Cn1cnc2ccccc21 (stereo not drawn) [compound 2936975] | 93.7 % of Negative Control | 49.3%
O=C1c2ccccc2S(=O)(=O)N1CC(O)COc1ccc(Cl)cc1Cl (stereo not drawn) [compound 2943193] | 90.5 % of Negative Control | 57.4%
Cc1ccc(N2C(=O)CC(Sc3ccccc3C(=O)N3CCOCC3)C2=O)cc1 (stereo not drawn) [compound 2951953] | 94.9 % of Negative Control | 52.3%
CCOC(=O)c1ccc(NC(=O)CC2Sc3ncnn3C2=O)cc1 (stereo not drawn) [compound 2954695] | 99.4 % of Negative Control | 101.7%
NS(=O)(=O)c1ccc(NC(=O)CSC2CC(=O)N(c3ccc(Br)cc3)C2=O)cc1 (stereo not drawn) [compound 2974037] | 102.2 % of Negative Control | 90.7%
CN(C)S(=O)(=O)N1CCN(CC(O)COc2ccc3cc(Br)ccc3c2)CC1 (stereo not drawn) [compound 2981975] | 88.7 % of Negative Control | 70.4%
CCn1c(CSc2ccccc2)nc2ccccc21 [compound 2992099] | 99.2 % of Negative Control | 59.0%
ClC(Cl)(c1nnnn1-c1ccccc1)c1nnnn1-c1ccccc1 [compound 3090522] | 90.6 % of Negative Control | 87.7%
CC1Cc2ccccc2N1C(=O)CCn1c(=O)sc2ccccc21 (stereo not drawn) [compound 3163780] | 59.5 % of Negative Control | -1.3%
S=C1SCN(Cc2ccccn2)CN1Cc1ccco1 [compound 3242906] | 103.5 % of Negative Control | 100.6%
O=C1CC(c2ccccc2)[Se]C(c2ccccc2)C1 (stereo not drawn) [compound 3287596] | 45.9 % of Negative Control | 100.2%
COC(=O)C1=C(N)OC2=C(C(=O)CCC2)C1c1ccc(OC)c(OC)c1 (stereo not drawn) [compound 3355288] | 104.5 % of Negative Control | 9.4%
S=C(NCc1ccco1)SCc1cn2ccccc2n1 [compound 3377203] | 86.3 % of Negative Control | 66.6%
CCCOC1(NS(=O)(=O)c2ccccc2)C(Cl)=C(Cl)C(=O)c2ccccc21 (stereo not drawn) [compound 3397555] | 17.7 % of Negative Control | 101.3%
Cc1ccc2nc(Nc3ccncc3)nc(-c3ccccc3)c2c1 [compound 3516311] | 72.7 % of Negative Control | 20.1%

Compound | Cytotoxicity: Relative Cell Viability (% of Negative Control) [1] | Yeast Inhibition: % Inhibition [2]
Nc1cc(Cl)c([N+](=O)[O-])cc1OCc1ccccc1 [compound 3521356] | 102.1 % of Negative Control | 52.3%
O=C(Nc1ccc2sccc2c1)c1ccc([N+](=O)[O-])s1 [compound 3629287] | 19.4 % of Negative Control | 97.9%
CC(C)(C)c1c[se]c(=S)s1 [compound 3797566] | 98.5 % of Negative Control | 91.9%
CCOC(=O)N1CCN(C(c2ccccn2)c2c(-c3ccccc3)n(O)c3ccccc23)CC1 (stereo not drawn) [compound 4081132] | 84.9 % of Negative Control | 101.5%
CC(C)C(=O)Nc1nnc(SCc2cccc(F)c2)s1 [compound 4086498] | 106.8 % of Negative Control | 20.2%
CCCCCCCNS(=O)(=O)c1ccc(OCC)cc1 [compound 4102712] | 43.9 % of Negative Control | 46.8%
O=C(N=C1C(Cl)=C(Cl)C(=O)c2ccccc21)c1ccc(Cl)cc1 [compound 4111118] | 7.1 % of Negative Control | 100.7%
O=C(Nc1cccc(C(F)(F)F)c1)C(Cl)C(=O)c1ccccc1 (stereo not drawn) [compound 4162926] | 20.8 % of Negative Control | 101.5%
N#CC(C#N)=NNc1cccc(Br)c1 [compound 4199189] | 31.1 % of Negative Control | 101.2%
c1ccc(-c2nc([P+](c3ccccc3)(c3ccccc3)c3ccccc3)c(N3CCCCCC3)o2)cc1 [compound 4345313] | 28.8 % of Negative Control | 101.2%
CCSc1oc(-c2ccco2)nc1[P+](c1ccccc1)(c1ccccc1)c1ccccc1 [compound 4360162] | 41.9 % of Negative Control | 72.3%
Cc1cc(C)c(S(=O)(=O)Nc2nc(C(F)(F)F)cs2)c(C)c1 [compound 4413055] | 49.5 % of Negative Control | 9.5%
Nc1c(-c2ccccc2)sc2nc(-c3ccccc3)cc[n+]12 [compound 4458495] | 52.5 % of Negative Control | 87.8%
CCC(OCC(O)CN1CCC(Cc2ccccc2)CC1)c1ccccc1 (stereo not drawn) [compound 4471873] | 78.8 % of Negative Control | 82.2%
COC(=O)c1c(NC(=O)c2ccc(C(C)(C)C)cc2)sc2c1CCN(C(C)C)C2 [compound 4684724] | 34.9 % of Negative Control | 50.4%
CN(Cc1ccccc1)C(=O)COc1ccc(Br)cc1 [compound 4690650] | 66.8 % of Negative Control | 25.9%
Clc1ccc2nc(Nc3ccncc3)nc(-c3ccccc3)c2c1 [compound 4714160] | 90.5 % of Negative Control | 14.9%
Cc1ccc2cc(CCC#N)c(Cl)nc2c1 [compound 4736829] | 96.3 % of Negative Control | 62.6%
O=[N+]([O-])CC(SCCO)c1ccc(O)cc1 (stereo not drawn) [compound 4737365] | 25.2 % of Negative Control | 99.2%
C=C(C)Cn1c(C2CC(=O)N(c3ccccc3F)C2)nc2ccccc21 (stereo not drawn) [compound 4754109] | 95.9 % of Negative Control | 6.6%
COc1cc(-c2c(C#N)c(N)nc3c2c(C)nn3-c2ccc(C)cc2)cc(OC)c1OC [compound 4893324] | 84.7 % of Negative Control | -3.0%
COc1cccc2cc(-c3csc(NN=C4CCN(C)CC4)n3)c(=O)oc12 [compound 4913014] | 68.7 % of Negative Control | 99.6%
COc1ccc(/C=C/c2nc3ccccc3[nH]2)cc1 [compound 5769808] | 14.4 % of Negative Control | 70.2%
C/C=C/c1ccc(OCCn2cnc3ccccc32)c(OC)c1 [compound 5769972] | 97.3 % of Negative Control | 79.1%
